Our source for the Emax and EC50 values is patent US10239887B2, “Positive allosteric modulators of the muscarinic acetylcholine receptor M4” (Vanderbilt University, priority 2016, dated 2019).

This experiment concerns the target T1, human mAChR M4 (Homo sapiens, UniProt P08173).
T1 sequence (P08173 1-479): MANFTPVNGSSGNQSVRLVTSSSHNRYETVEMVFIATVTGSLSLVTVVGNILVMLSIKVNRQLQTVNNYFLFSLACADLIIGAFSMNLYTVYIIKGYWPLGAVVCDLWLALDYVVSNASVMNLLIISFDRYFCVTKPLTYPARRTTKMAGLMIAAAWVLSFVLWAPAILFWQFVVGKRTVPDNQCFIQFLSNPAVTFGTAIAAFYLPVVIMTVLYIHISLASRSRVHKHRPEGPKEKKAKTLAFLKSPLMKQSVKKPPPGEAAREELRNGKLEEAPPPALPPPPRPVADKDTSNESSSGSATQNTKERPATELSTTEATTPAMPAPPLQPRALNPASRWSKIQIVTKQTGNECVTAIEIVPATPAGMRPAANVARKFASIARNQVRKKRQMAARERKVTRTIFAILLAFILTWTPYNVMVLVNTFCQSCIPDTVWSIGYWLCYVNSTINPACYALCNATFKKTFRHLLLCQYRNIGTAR
The experiment can be described thus: mAChR M4 cell-based functional assay (calcium flux), human M4. The note with it: for Emax: % ACh maximum at 30 μM.

Setting [1] is: Human M4 EC50, CHO-K1 hM4-Gqi5 cells, calcium flux, increase in EC20 acetylcholine response.
Where [2] appears, read: Human M4 EC50 (nM), Table 10, calcium flux, PAM activity with EC20 acetylcholine.

Where a name gives a salt, the structure may show the parent alone. Read-outs that look alike come from different tables or passages of the source. Where only a bound is given, the exact number is not on record here.

As to `Cc1nnc2oc3c(NCc4cccc(C(C)(C)O)c4)ncnc3c2c1C` [Compound 67, 2-[3-[[(3,4-dimethylpyrimido [4′,5′:4,5]furo[2,3-c]pyridazin-8-yl)amino]methyl]phenyl]propan-2-ol], the maximum response (Emax) (Human M4) is 63.4%.

Regarding `Cc1nnc2oc3c(NC4CC4)ncnc3c2c1C` [Compound 68, N-cyclopropyl-3,4-dimethyl-pyrimido [4′,5′:4,5]furo[2,3-c]pyridazin-8-amine], where the note is “Human M4”, the Emax came to 66.5%. Also, the concentration for a half-maximal effect (EC50) under setting [1] was 1310 nM.

For the compound `Cc1nnc2oc3c(NC4CCC4)ncnc3c2c1C` [Compound 69, N-cyclobutyl-3,4-dimethyl-pyrimido [4′,5′:4,5]furo[2,3-c]pyridazin-8-amine], the maximum response (Emax) (Human M4) was 54.8%.

For `Cc1nnc2oc3c(NC4CCCC4)ncnc3c2c1C` [Compound 70, N-cyclopentyl-3,4-dimethyl-pyrimido [4′,5′:4,5]furo[2,3-c]pyridazin-8-amine], the Emax (Human M4) stood at 45.9%. In addition, under setting [1], the 50% effective concentration (EC50) was found to be 818 nM.

With `Cc1nnc2oc3c(NC4CC5(COC5)C4)ncnc3c2c1C` [Compound 71, 3,4-dimethyl-N-(2-oxaspiro[3.3]heptan-6-yl)pyrimido[4′,5′:4,5] furo[2,3-c]pyridazin-8-amine], the Emax (Human M4) was determined as 37.2%. Moreover, the EC50 under setting [1] is more than 10000 nM.

With `Cc1nnc2oc3c(NC4CC(F)(F)C4)ncnc3c2c1C` [Compound 72, N-(3,3-difluorocyclobutyl)-3,4-dimethyl-pyrimido [4′,5′:4,5]furo[2,3-c]pyridazin-8-amine], the Emax (Human M4) turned out to be 57.9%. For the same compound, the EC50 under setting [1] came out at 1750 nM.

With `Cc1nnc2oc3c(N4CC5(COC5)C4)ncnc3c2c1C` [Compound 73, 3,4-dimethyl-8-(2-oxa-6-azaspiro[3.3]heptan-6-yl)pyrimido[4′,5′:4,5]furo [2,3-c]pyridazine], under “Human M4”, the Emax amounted to 46.1%. Besides, the concentration for a half-maximal effect (EC50) under setting [1] was 4840 nM.

For the compound `Cc1nnc2oc3c(NCc4ccc(C(C)(C)O)nc4)ncnc3c2c1C` [Compound 74, 2-[5-[[(3,4-dimethylpyrimido [4′,5′:4,5]furo[2,3-c]pyridazin-8-yl)amino]methyl]-2-pyridyl]propan-2-ol], the Emax (Human M4) was 59.5%. Moreover, the 50% effective concentration (EC50) under setting [1] was found to be 9160 nM.

For the compound `COc1ccc(CNc2ncnc3c2oc2nnc(C)c(C)c23)cc1F` [Compound 75, N-[(3-fluoro-4-methoxy-phenyl)methyl]-3,4-dimethyl-pyrimido[4′,5′:4,5]furo[2,3-c]pyridazin-8-amine], under “Human M4”, the Emax is 36.4%.

Regarding `COc1ccc(C2CC2Nc2ncnc3c2sc2nnc(C)c(C)c23)cc1` (stereo not drawn) [Compound 77, N-(2-(4-methoxyphenyl)cyclopropyl)-3,4-dimethylpyrimido [4′,5′:4,5]thieno[2,3-c] pyridazin-8-amine], under setting [2], the EC50 was found to be 200 nM. The maximal response (Emax) (Table 10) turned out to be 86%.

On to `COc1ccc(CNc2ncnc3c2sc2nnc(C)c(C)c23)cc1F` [Compound 78, N-(3-fluoro-4-methoxybenzyl)-3,4-dimethylpyrimido [4′,5′:4,5]thieno[2,3-c] pyridazin-8-amine], for which the Emax (Table 10) is 71.6%.

Turning to `Cc1nnc2sc3c(NCc4ccc(-c5cccnc5F)cc4)ncnc3c2c1C` [Compound 79, N-(4-(2-fluoropyridin-3-yl)benzyl)-3,4-dimethylpyrimido [4′,5′:4,5]thieno[2,3-c] pyridazin-8-amine], under setting [2], the EC50 is 773 nM. The Emax (Table 10) amounted to 95.2%.

For `Cc1nnc2sc3c(N4CC(C)(O)C4)ncnc3c2c1C` [Compound 80, 1-(3,4-dimethylpyrimido [4′,5′:4,5]thieno[2,3-c]pyridazin-8-yl)-3-methyl-azetidin-3-ol], under “Table 10”, the Emax is 62.1%.

Regarding `Cc1nnc2sc3c(NC4CCN(c5cccc(F)c5F)C4)ncnc3c2c1C` (stereo not drawn) [Compound 81, N-[1-(2,3-difluorophenyl)pyrrolidin-3-yl]-3,4-dimethyl-pyrimido [4′,5′:4,5]thieno[2,3-c] pyridazin-8-amine], the EC50 under setting [2] was determined as 3120 nM. The maximal effect (Emax) (Table 10) was determined as 62.6%.

Regarding `Cc1nnc2sc3c(NC4CN(c5ncc(C6CC6)cc5Cl)C4)ncnc3c2c1C` [Compound 82, N-[1-(3-chloro-5-cyclopropyl-2-pyridyl)azetidin-3-yl]-3,4-dimethyl-pyrimido [4′,5′:4,5]thieno[2,3-c] pyridazin-8-amine], the EC50 (Human M4 EC50 (nM), Table 10, unit μM (bounds)) is more than 10000 nM. Further, the Emax (Table 10) was determined as 50.1%.

Regarding `Cc1nc(C2CC2)ccc1N1CC(Nc2ncnc3c2sc2nnc(C)c(C)c23)C1` [Compound 83, N-[1-(6-cyclopropyl-2-methyl-3-pyridyl)azetidin-3-yl]-3,4-dimethyl-pyrimido [4′,5′:4,5]thieno[2,3-c] pyridazin-8-amine], the EC50 under setting [2] stood at 288 nM. In addition, the Emax (Table 10) was 59.7%.

Consider `Cc1nnc2sc3c(NC4CN(c5ncc(F)cn5)C4)ncnc3c2c1C` [Compound 84, N-[1-(5-fluoropyrimidin-2-yl)azetidin-3-yl]-3,4-dimethyl-pyrimido [4′,5′:4,5]thieno[2,3-c] pyridazin-8-amine], for which the half-maximal effective concentration (EC50) is 27.6 nM. The maximal response (Emax) (Table 10) is 64.9%.

Turning to `Cc1nnc2sc3c(NC4CN(c5cc(Cl)ncc5Cl)C4)ncnc3c2c1C` [Compound 85, N-[1-(2,5-dichloro-4-pyridyl)azetidin-3-yl]-3,4-dimethyl-pyrimido [4′,5′:4,5]thieno[2,3-c] pyridazin-8-amine], the Emax (Table 10) is 74.3%.

Regarding `Cc1nnc2sc3c(NC4CN(c5cnc(C6CC6)cn5)C4)ncnc3c2c1C` [Compound 86, N-[1-(5-cyclopropylpyrazin-2-yl)azetidin-3-yl]-3,4-dimethyl-pyrimido [4′,5′:4,5]thieno[2,3-c] pyridazin-8-amine], the EC50 under setting [2] stood at 60.4 nM. Under “Table 10”, the maximal response (Emax) was 69%.

As for `Cc1nnc2sc3c(NC4CN(C(=O)OC(C)(C)C)C4)ncnc3c2c1C` [Compound 87, tert-butyl 3-[(3,4-dimethylpyrimido [4′,5′:4,5]thieno[2,3-c]pyridazin-8-yl)amino] azetidine-1-carboxylate], under setting [2], the EC50 stood at 139 nM. Moreover, the Emax (Table 10) was found to be 70.5%.

Turning to `Cc1nnc2sc3c(NC4CNC4)ncnc3c2c1C` [Compound 88, N-(azetidin-3-yl)-3,4-dimethyl-pyrimido [4′,5′:4,5]thieno[2,3-c] pyridazin-8-amine dihydrochloride], the EC50 under setting [2] stood at 1190 nM. Also, under “Table 10”, the maximal effect (Emax) came to 73.7%.

Consider `Cc1nnc2sc3c(NC4CN(c5ncc(OC(C)C)cn5)C4)ncnc3c2c1C` [Compound 89, N-[1-(5-isopropoxypyrimidin-2-yl)azetidin-3-yl]-3,4-dimethyl-pyrimido [4′,5′:4,5]thieno[2,3-c] pyridazin-8-amine], for which, under setting [2], the EC50 came to 75.2 nM. The maximal effect (Emax) (Table 10) is 57.8%.

For the compound `Cc1nnc2sc3c(NCc4ccc(OC(F)F)nc4)ncnc3c2c1C` [Compound 90, N-[[6-(difluoromethoxy)-3-pyridyl]methyl]-3,4-dimethyl-pyrimido [4′,5′:4,5]thieno[2,3-c] pyridazin-8-amine], the concentration for a half-maximal effect (EC50) under setting [2] was determined as 277 nM. For the same compound, the Emax (Table 10) is 76.7%.

With `Cc1nnc2sc3c(NCc4ccc(OCC5CC5)c(F)c4)ncnc3c2c1C` [Compound 91, N-[[4-(cyclopropylmethoxy)-3-fluoro-phenyl]methyl]-3,4-dimethyl-pyrimido [4′,5′:4,5]thieno[2,3-c] pyridazin-8-amine], under setting [2], the EC50 is 3130 nM. Besides, for the setting “Table 10”, the Emax was 61.8%.

`Cc1nnc2sc3c(NCc4ccc(S(F)(F)(F)(F)F)cc4)ncnc3c2c1C` [Compound 92, 3,4-dimethyl-N-[[4-(pentafluoro-λ6-sulfanyl)phenyl]methyl]pyrimido [4′,5′:4,5]thieno[2,3-c] pyridazin-8-amine]: the concentration for a half-maximal effect (EC50) under setting [2] is 5270 nM. The Emax (Table 10) is 67.3%.

Consider `Cc1nnc2sc3c(NCc4ccc(S(C)(=O)=O)cc4)ncnc3c2c1C` [Compound 93, 3,4-dimethyl-N-[(4-methylsulfonylphenyl)methyl] pyrimido[4′,5′:4,5]thieno [2,3-c]pyridazin-8-amine], for which the EC50 under setting [2] is 192 nM. For the setting “Table 10”, the maximal effect (Emax) turned out to be 61.3%.

Turning to `COc1ccc(CNc2ncnc3c2sc2nnc(C)c(C)c23)cc1OC` [Compound 94, N-[(3,4-dimethoxyphenyl)methyl]-3,4-dimethyl-pyrimido[4′,5′:4,5]thieno [2,3-c]pyridazin-8-amine], under setting [2], the concentration giving a half-maximal response (EC50) was 639 nM. Moreover, for the setting “Table 10”, the Emax came to 79.7%.

Take `Cc1nnc2sc3c(N4CC(N)C4)ncnc3c2c1C` [Compound 95, 1-(3,4-dimethylpyrimido [4′,5′:4,5]thieno[2,3-c]pyridazin-8-yl) azetidin-3-amine]: under setting [2], the EC50 was 395 nM. Moreover, the maximal response (Emax) (Table 10) came to 61.4%.

On to `CC(=O)NC1CN(c2ncnc3c2sc2nnc(C)c(C)c23)C1` [Compound 96, N-[1-(3,4-dimethylpyrimido [4′,5′:4,5]thieno[2,3-c]pyridazin-8-yl)azetidin-3-yl]acetamide], for which the half-maximal effective concentration (EC50) under setting [2] is 830 nM. Further, the Emax (Table 10) worked out at 60.3%.

`Cc1nnc2sc3c(N4CC(NC(=O)c5ccncc5)C4)ncnc3c2c1C` [Compound 97, N-[1-(3,4-dimethylpyrimido [4′,5′:4,5]thieno[2,3-c]pyridazin-8-yl)azetidin-3-yl]pyridine-4-carboxamide hydrochloride]: the EC50 under setting [2] amounted to 1130 nM. Besides, the maximal response (Emax) (Table 10) came to 51.7%.
